{"source": "patent US10720228B2", "about": "“Method and system for testing of active molecules using molecular simulation of skin membrane” (Tata Consultancy Services Limited, priority 2016, dated 2020)", "origin": "cited, not measured here", "conditions": "323 K"}
{"smiles": "O", "note": "[water]", "values": [{"measurement": "experimentally observed free energy of water solvation in hexadecane", "result": 5.98, "unit": "kcal/mol"}]}
